In assay [1] the target is human recombinant FGFR3 catalytic structural domain protein (amino acids 399-806) (Homo sapiens (Human), UniProt P22607). The assay is described as follows: FGFR3 activity inhibition test (HTRF kinase assay). In kind it is biochemical. The conditions noted are these: 90 μM ATP. (TR-FRET usually uses a lanthanide donor and a delayed reading to cut background.)
Assay [2] addresses human recombinant FGFR2 catalytic structural domain protein (amino acids 400-821) (Homo sapiens (Human), UniProt P21802). The assay is described as follows: FGFR2 activity inhibition test (HTRF kinase assay). In kind it is biochemical. The conditions noted are these: 50 μM ATP.

human recombinant FGFR3 catalytic structural domain protein (amino acids 399-806), sequence (P22607 399-806): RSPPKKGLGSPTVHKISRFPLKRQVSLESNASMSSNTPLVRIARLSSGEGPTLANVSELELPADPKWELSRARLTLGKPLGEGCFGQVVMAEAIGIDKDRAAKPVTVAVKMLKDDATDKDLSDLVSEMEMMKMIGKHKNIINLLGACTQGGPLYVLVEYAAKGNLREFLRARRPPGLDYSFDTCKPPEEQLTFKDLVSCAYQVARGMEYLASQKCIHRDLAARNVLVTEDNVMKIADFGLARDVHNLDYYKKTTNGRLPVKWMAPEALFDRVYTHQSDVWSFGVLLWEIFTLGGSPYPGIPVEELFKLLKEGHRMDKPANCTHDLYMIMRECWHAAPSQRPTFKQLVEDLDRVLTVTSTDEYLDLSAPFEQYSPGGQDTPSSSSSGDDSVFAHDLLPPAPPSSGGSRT
human recombinant FGFR2 catalytic structural domain protein (amino acids 400-821), sequence (P21802 400-821): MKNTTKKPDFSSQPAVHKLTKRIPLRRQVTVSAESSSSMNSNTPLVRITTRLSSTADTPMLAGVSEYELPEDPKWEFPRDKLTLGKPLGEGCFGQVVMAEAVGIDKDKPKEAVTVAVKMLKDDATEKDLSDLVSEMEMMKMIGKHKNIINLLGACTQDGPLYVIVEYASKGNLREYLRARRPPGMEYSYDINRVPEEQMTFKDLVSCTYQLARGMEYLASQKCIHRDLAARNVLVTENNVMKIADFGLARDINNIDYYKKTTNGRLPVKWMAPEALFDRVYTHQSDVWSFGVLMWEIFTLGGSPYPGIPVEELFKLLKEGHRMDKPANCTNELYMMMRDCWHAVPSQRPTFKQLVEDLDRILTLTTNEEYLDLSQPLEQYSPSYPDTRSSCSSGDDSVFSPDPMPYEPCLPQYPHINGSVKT

A word on the IC50: it is the concentration that gives 50% inhibition. Take `C#CC(=O)N1CC[C@@H](c2nc(C#Cc3cc(OC)cc(OC)c3)c3c(N)nccn23)C1` (stereo in doubt) [Compound 8, 1-((3,5-Dimethoxyphenyl)ethynyl)-3-(1-propynoylpyrrolidin-3-yl)imidazo[1,5-a]pyrazin-8-amine]: the IC50 in assay [1] is 50 to 500 nM; in assay [2], under 50 nM.

Regarding `CC#CC(=O)N1CC[C@@H](c2nc(C#Cc3cc(OC)cc(OC)c3)c3c(N)nccn23)C1` [Compound 5, (R)-1-((3,5-Dimethoxyphenyl)ethynyl)-3-(1-butan-2-ynoylpyrrolidin-3-yl)imidazo[1,5-a]pyrazin-8-amine], the IC50 in assay [1] and in assay [2] was under 50 nM in each case.

Regarding `C/C=C/C(=O)N1CC[C@@H](c2nc(C#Cc3cc(OC)cc(OC)c3)c3c(N)nccn23)C1` [Compound 7, (E)-1-((3,5-Dimethoxyphenyl)ethynyl)-3-(1-butan-2-enoylpyrrolidin-3-yl)imidazo[1,5-a]pyrazin-8-amine], the half-inhibitory concentration (IC50) in assay [1] and in assay [2] was under 50 nM throughout.

Turning to `CC#CC(=O)N1CCC(c2nc(C#Cc3cc(OC)cc(OC)c3)c3c(N)nccn23)C1` (centres unmarked) [Compound 9, 1-((3,5-Dimethoxyphenyl)ethynyl)-3-(1-butan-2-ynoylpyrolidin-3-yl)imidazo[1,5-a]pyrazin-8-amine], the IC50 in assay [1] is 50 to 500 nM; in assay [2], under 50 nM.

With `COc1cc(C#Cc2nc(C3CCN(C(=O)/C=C/CN(C)C)C3)n3ccnc(N)c23)cc(OC)c1` (centres unmarked) [Compound 10], the IC50 in assay [1] and in assay [2] was under 50 nM each time.

As to `C/C=C/C(=O)N1CC(c2nc(C#Cc3cc(OC)cc(OC)c3)c3c(N)nccn23)C1` [Compound 11, (E)-1-((3,5-Dimethoxyphenyl)ethynyl)-3-(1-but-2-enoylazacyclobutan-3-yl)imidazo[1,5-a]pyrazin-8-amine], the IC50 in assay [1] and in assay [2] was 50 to 500 nM throughout.

As for `CC#CC(=O)N1CC(c2nc(C#Cc3cc(OC)cc(OC)c3)c3c(N)nccn23)C1` [Compound 12, 1-((3,5-Dimethoxyphenyl)ethynyl)-3-(1-but-2-ynoylazacyclobutan-3-yl)imidazo[1,5-a]pyrazin-8-amine], the IC50 in assay [1] and in assay [2] was 50 to 500 nM throughout.

The values above are taken from patent US10752631B2, “Heterocyclic compounds as FGFR inhibitors” (GUANGZHOU INNOCARE PHARMA TECH CO., LTD., priority 2016, dated 2020).
